Key:
[1] = test system: C-26 colon adenocarcinoma cachexia model; experiment: Combined androgen and AR-42 study (Study 3), C-26 model; format: in vivo, mouse; conditions: Study 3
Procedure: These studies were performed as previously described (Tseng Y C, et al. J Natl Cancer Inst. 2015 107(12):djv274) with modifications. Tumors were established in the right flank by subcutaneous injection of C-26 cells (0.5×10^6 cells in 0.1 mL). […] TFM-4AS-1 (a potent experimental SARM), dihydrotestosterone (DHT) and vehicles were administered by subcutaneous injection.
Six days after cell injection, animals with palpable tumors were treated once daily for 13 days with vehicles for AR-42 and TFM-4AS-1/DHT (n=9), AR-42 (10 mg/kg; TFM-4AS-1/DHT vehicle; n=10), TFM-4AS-1 (10 mg/kg; AR-42 vehicle; n=9), DHT (3 mg/kg; AR-42 vehicle; n=10), the combination of AR-42 and TFM-4AS-1 (10 mg/kg each; n=9), or the combination of AR-42 (10 mg/kg) and DHT (3 mg/kg)(n=10). Grip strength was measured and tissues collected as in the previous studies.
Forelimb grip strength was measured using Bio-GS3 Grip Strength Test Meter (Forceleader DBA Bioseb, Pinellas Park, Fla.). Each mouse was held by the base of its tail and lowered over the apparatus until its forepaws grasped the metal pull bar. The mouse was then gently pulled horizontally in a straight line away from the grip strength meter until the mouse released the bar. The force applied to the bar at the moment of release was recorded as the peak force. Five measurements were taken from each mouse, the average of which was designated as the mouse's grip strength.

[2] = Jones et al. 2010; cited from earlier work

**Q.** For C[C@]12CCC(=O)C[C@@H]1CC[C@@H]1[C@@H]2CC[C@]2(C)[C@@H](O)CC[C@@H]12 [DHT, dihydrotestosterone], which tumor growth ([1]; DHT alone 3 mg/kg, after 8 days of administration) is on record?
**A.** tumor growth was significantly suppressed

**Q.** Which “effect on orchiectomy- and glucocorticoid-mediated wasting” value [2] does the source give for C[C@](O)(COc1ccc(Cl)c(F)c1)C(=O)Nc1ccc(C#N)c(C(F)(F)F)c1 [S-23] here?
**A.** reversed orchiectomy- and glucocorticoid-mediated wasting

**Q.** With CN1C(=O)C=C[C@]2(C)[C@H]3CC[C@]4(C)[C@@H](C(=O)Nc5ccccc5C(F)(F)F)CC[C@H]4[C@@H]3CC[C@@H]12 [TFM-4AS-1] as the compound, how does the “effect on body weight” value ([1]; TFM-4AS-1 10 mg/kg monotherapy) read?
**A.** did not spare body weight

**Q.** And the “effect on mass of gastrocnemius or quadriceps” value ([1]; monotherapy (TFM-4AS-1 10 mg/kg; AR-42 10 mg/kg))?
**A.** did not spare

Source: patent US11529323B2 (priority 2017, dated 2022)
